Assay results published in patent US12408662B2, “Hydrogen peroxide and peracid stabilization with molecules based on a pyridine carboxylic acid” (ECOLAB USA INC., priority 2018, dated 2025).

Assay: Stability of peroxyacetic acid compositions with lower acetic acid relative to hydrogen peroxide (Example 3, FIG. 3)
Type: physicochemical

stabilization of peroxyacetic acid (in words): comparable to commonly used stabilizers
SMILES: O=C(O)c1cccnc1 [Niacin, 3-pyridinecarboxylic acid]
